pEC50: −log10 of the molar value. Read-outs that look alike come from different tables or passages of the source. *1 amine or outer side, *2 acyl side, *3 side chain or, on linkers, in order; H or OH if unused. Where a SMILES comes first, the peptide text is derived from it. Side-chain parts run from the residue outwards. The star is where a group is joined. C20 diacid = O=C(O)CCCCCCCCCCCCCCCCCCC(=O)*; C18 diacid = O=C(O)CCCCCCCCCCCCCCCCC(=O)*; γGlu = O=C(O)[C@H](CCC(=O)[*:2])N[*:1]; Trx = NC[C@H]1CC[C@H](C(=O)O)CC1; AEEA = NCCOCCOCC(=O)O
Experiments:
[1] = biological target: T1, Y2 receptor (Homo sapiens, UniProt P49146); assay: Y2 receptor ACTOne based FLIPR assay (cAMP biosensor); format: cell-based
T1 construct: host or cells: ACTOne HEK-293 cells
T1 sequence (P49146 1-381): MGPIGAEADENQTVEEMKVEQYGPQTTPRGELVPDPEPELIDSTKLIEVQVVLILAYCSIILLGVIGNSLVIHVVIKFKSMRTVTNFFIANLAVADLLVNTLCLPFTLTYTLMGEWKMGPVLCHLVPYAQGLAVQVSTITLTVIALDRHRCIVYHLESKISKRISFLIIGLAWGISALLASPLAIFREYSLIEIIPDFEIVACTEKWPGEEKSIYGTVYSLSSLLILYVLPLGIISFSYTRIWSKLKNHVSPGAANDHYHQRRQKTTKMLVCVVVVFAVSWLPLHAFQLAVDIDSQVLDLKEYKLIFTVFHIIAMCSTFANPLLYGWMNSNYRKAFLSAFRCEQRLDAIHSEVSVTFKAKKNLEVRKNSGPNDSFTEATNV

[2] = biological target: T2, Y4 receptor (Homo sapiens, UniProt P50391); assay: Y4 receptor ACTOne based FLIPR assay (cAMP biosensor); format: cell-based
T2 construct: host or cells: ACTOne HEK-293 cells

[3] = in vivo; conditions: Göttingen, minipig
Outline: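 Catheterised mini-pigs received compound i.v. at 10 nmol/kg in pH 4.0 phosphate/NaCl/tween vehicle, or alternatively i.v. or s.c. at 1–30 nmol/kg in pH 8.0 K2HPO4/tween. Stabilised plasma was sampled up to 13 days and assayed by LC-MS (LLOQ 2 nM). Half-life came from non-compartmental analysis of individual animal profiles.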

[4] = Table 2, PP analogues, ACTOne HEK-293 cells, read-out: Y2 cAMP EC50
[5] = Table 2, PP analogues, ACTOne HEK-293 cells, read-out: Y4 cAMP EC50

T2 sequence (P50391 whole entry): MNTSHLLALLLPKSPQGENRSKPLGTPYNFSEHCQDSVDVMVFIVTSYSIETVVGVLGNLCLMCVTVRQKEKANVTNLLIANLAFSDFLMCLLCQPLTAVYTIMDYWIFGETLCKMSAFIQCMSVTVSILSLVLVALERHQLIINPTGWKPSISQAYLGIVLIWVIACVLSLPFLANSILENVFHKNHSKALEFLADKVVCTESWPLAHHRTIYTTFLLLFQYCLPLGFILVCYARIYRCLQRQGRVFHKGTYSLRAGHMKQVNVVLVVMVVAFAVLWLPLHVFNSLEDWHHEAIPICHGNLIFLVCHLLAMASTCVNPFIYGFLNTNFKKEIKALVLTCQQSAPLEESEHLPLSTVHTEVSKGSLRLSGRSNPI

pEC50 [1, 4] | pEC50 [2, 5] | half-life ([3]; iv, […]) [h] | half-life ([3]; iv, 4 nmol/kg) [h] | half-life ([3]; male, sc, 4 nmol/kg) [h] | half-life ([3]; iv, 10 nmol/kg) [h] | Compound | pEC50 [1] | pEC50 [2] | half-life ([3]; in vivo, iv, 7 nmol/kg) [h] | half-life ([3]; male, in vivo, sc, 7 nmol/kg) [h]
< 6.00 | 9.00 | 22 |  |  |  | CC[C@H](C)[C@H](NC(=O)[C@H](Cc1ccc(O)cc1)NC(=O)[C@H](CCCNC(=N)N)NC(=O)[C@H](CCCNC(=N)N)NC(=O)[C@H](CC(C)C)NC(=O)[C@H](CC(=O)O)NC(=O)[C@H](C)NC(=O)[C@H](C)NC(=O)[C@H](Cc1ccc(O)cc1)NC(=O)[C@H](CCC(N)=O)NC(=O)[C@H](C)NC(=O)[C@H](CC(C)C)NC(=O)[C@H](CCC(N)=O)NC(=O)[C@H](CCC(=O)O)NC(=O)[C@@H]1CCCN1C(=O)[C@@H](NC(=O)[C@H](C)NC(=O)[C@H](CCCCNC(=O)COCCOCCNC(=O)COCCOCCNC(=O)CC[C@H](NC(=O)CCCCCCCCCCCCCCCCC(=O)O)C(=O)O)NC(=O)[C@H](CC(=O)O)NC(=O)CNC(=O)[C@@H]1CCCN1C(=O)[C@H](Cc1ccc(O)cc1)NC(=O)[C@@H](NC(=O)[C@@H]1CCCN1C(=O)[C@H](CCC(=O)O)NC(=O)[C@H](CC(C)C)NC(=O)[C@@H]1CCCN1)C(C)C)[C@@H](C)O)C(=O)N[C@@H](CC(N)=O)C(=O)N[C@@H](CC(C)C)C(=O)N[C@@H](CC(C)C)C(=O)N[C@H](C(=O)N[C@@H](CCCNC(=N)N)C(=O)N1CCC[C@H]1C(=O)N[C@@H](CCCNC(=N)N)C(=O)N[C@@H](Cc1ccc(O)cc1)C(N)=O)[C@@H](C)O [SEQ ID NO: 30, N-epsilon11-[2-(2-{2-[2-(2-{2-[(S)-4-Carboxy-4-(17-carboxyheptadecanoylamino)butyrylamino]ethoxy}ethoxy)acetylamino]-ethoxy}ethoxy)acetyl][Lys11,Leu17,Leu30]hPP2-36] (H-PLEPVYPGDK([AEEA-AEEA-γGlu-C18 diacid])ATPEQLAQYAADLRRYINLLTRPRY-NH2; N-terminus and C-terminus assumed) |  |  |  | 
 |  |  |  |  |  | CC[C@H](C)[C@H](NC(=O)[C@H](Cc1ccc(O)cc1)NC(=O)[C@H](CCCNC(=N)N)NC(=O)[C@H](CCCNC(=N)N)NC(=O)[C@H](CC(C)C)NC(=O)[C@H](CC(=O)O)NC(=O)[C@H](C)NC(=O)[C@H](C)NC(=O)[C@H](Cc1ccc(O)cc1)NC(=O)[C@H](CCC(N)=O)NC(=O)[C@H](C)NC(=O)[C@H](CC(C)C)NC(=O)[C@H](CCC(N)=O)NC(=O)[C@H](CCC(=O)O)NC(=O)[C@@H]1CCCN1C(=O)[C@@H](NC(=O)[C@H](C)NC(=O)[C@H](CC(N)=O)NC(=O)[C@H](CC(=O)O)NC(=O)CNC(=O)[C@@H]1CCCN1C(=O)[C@H](Cc1ccc(O)cc1)NC(=O)[C@@H](NC(=O)[C@@H]1CCCN1C(=O)[C@H](CCC(=O)O)NC(=O)[C@H](CC(C)C)NC(=O)[C@@H]1CCCN1)C(C)C)[C@@H](C)O)C(=O)N[C@@H](CC(N)=O)C(=O)N[C@@H](CC(C)C)C(=O)N[C@@H](CC(C)C)C(=O)N[C@H](C(=O)N[C@@H](CCCCNC(=O)COCCOCCNC(=O)COCCOCCNC(=O)CC[C@H](NC(=O)[C@H]1CC[C@H](CNC(=O)CCCCCCCCCCCCCCCCCCC(=O)O)CC1)C(=O)O)C(=O)N1CCC[C@H]1C(=O)N[C@@H](CCCNC(=N)N)C(=O)N[C@@H](Cc1ccc(O)cc1)C(N)=O)[C@@H](C)O [SEQ ID NO: 42, N-epsilon33-[2-(2-{2-[2-(2-{2-[(S)-4-Carboxy-4-({trans-4-[(19-carboxynonadecanoylamino)methyl]cyclohexanecarbonyl}amino)butyrylamino]-ethoxy}ethoxy)acetylamino]ethoxy}ethoxy)acetyl][Leu17,Leu30,Lys33]hPP2-36] (H-PLEPVYPGDNATPEQLAQYAADLRRYINLLTK([AEEA-AEEA-γGlu-Trx-C20 diacid])PRY-NH2) | < 6.00 | < 6.00 | 116 | 167
< 6.00 | < 6.05 |  | 74 | 93 |  | CC[C@H](C)[C@H](NC(=O)[C@H](Cc1ccc(O)cc1)NC(=O)[C@H](CCCNC(=N)N)NC(=O)[C@H](CCCNC(=N)N)NC(=O)[C@H](CC(C)C)NC(=O)[C@H](CC(=O)O)NC(=O)[C@H](C)NC(=O)[C@H](C)NC(=O)[C@H](Cc1ccc(O)cc1)NC(=O)[C@H](CCC(N)=O)NC(=O)[C@H](C)NC(=O)[C@H](CC(C)C)NC(=O)[C@H](CCC(N)=O)NC(=O)[C@H](CCC(=O)O)NC(=O)[C@@H]1CCCN1C(=O)[C@@H](NC(=O)[C@H](C)NC(=O)[C@H](CC(N)=O)NC(=O)[C@H](CC(=O)O)NC(=O)CNC(=O)[C@@H]1CCCN1C(=O)[C@H](Cc1ccc(O)cc1)NC(=O)[C@@H](NC(=O)[C@@H]1CCCN1C(=O)[C@H](CCC(=O)O)NC(=O)[C@H](CC(C)C)NC(=O)[C@@H]1CCCN1)C(C)C)[C@@H](C)O)C(=O)N[C@@H](CCCCNC(=O)COCCOCCNC(=O)COCCOCCNC(=O)CC[C@H](NC(=O)[C@H]1CC[C@H](CNC(=O)CCCCCCCCCCCCCCCCCCC(=O)O)CC1)C(=O)O)C(=O)N[C@@H](CC(C)C)C(=O)N[C@@H](CC(C)C)C(=O)N[C@H](C(=O)N[C@@H](CCCNC(=N)N)C(=O)N1CCC[C@H]1C(=O)N[C@@H](CCCNC(=N)N)C(=O)N[C@@H](Cc1ccc(O)cc1)C(N)=O)[C@@H](C)O [SEQ ID NO: 44, N-epsilon29-[2-(2-{2-[2-(2-{2-[(S)-4-Carboxy-4-({trans-4-[(19-carboxynonadecanoylamino)methyl]cyclohexanecarbonyl}amino)butyrylamino]-ethoxy}ethoxy)acetylamino]ethoxy}ethoxy)acetyl][Leu17,Lys29,Leu30]hPP2-36] (H-PLEPVYPGDNATPEQLAQYAADLRRYIK([AEEA-AEEA-γGlu-Trx-C20 diacid])LLTRPRY-NH2) |  |  |  | 
< 6.00 | < 6.00 |  |  |  | 93 | CC[C@H](C)[C@H](NC(=O)[C@H](Cc1ccc(O)cc1)NC(=O)[C@H](CCCNC(=N)N)NC(=O)[C@H](CCCNC(=N)N)NC(=O)[C@H](CC(C)C)NC(=O)[C@H](CC(=O)O)NC(=O)[C@H](C)NC(=O)[C@H](C)NC(=O)[C@H](Cc1ccc(O)cc1)NC(=O)[C@H](CCC(N)=O)NC(=O)[C@H](C)NC(=O)[C@H](CC(C)C)NC(=O)[C@H](CCC(N)=O)NC(=O)[C@H](CCC(=O)O)NC(=O)[C@@H]1CCCN1C(=O)[C@@H](NC(=O)[C@H](C)NC(=O)[C@H](CC(N)=O)NC(=O)[C@H](CC(=O)O)NC(=O)CNC(=O)[C@@H]1CCCN1C(=O)[C@H](Cc1ccc(O)cc1)NC(=O)[C@@H](NC(=O)[C@@H]1CCCN1C(=O)[C@H](CCC(=O)O)NC(=O)[C@H](CC(C)C)NC(=O)[C@@H]1CCCN1)C(C)C)[C@@H](C)O)C(=O)N[C@@H](CC(N)=O)C(=O)N[C@@H](CC(C)C)C(=O)N[C@@H](CC(C)C)C(=O)N[C@H](C(=O)N[C@@H](CCCNC(=N)N)C(=O)N1CCC[C@H]1C(=O)N[C@@H](CCCCNC(=O)COCCOCCNC(=O)COCCOCCNC(=O)CC[C@H](NC(=O)[C@H]1CC[C@H](CNC(=O)CCCCCCCCCCCCCCCCCCC(=O)O)CC1)C(=O)O)C(=O)N[C@@H](Cc1ccc(O)cc1)C(N)=O)[C@@H](C)O [SEQ ID NO: 48, N-epsilon35-[2-(2-{2-[2-(2-{2-[(S)-4-Carboxy-4-({trans-4-[(19-carboxynonadecanoylamino)methyl]cyclohexanecarbonyl}amino)butyrylamino]-ethoxy}ethoxy)acetylamino]ethoxy}ethoxy)acetyl][Leu17,Leu30,Lys35]hPP2-36] (H-PLEPVYPGDNATPEQLAQYAADLRRYINLLTRPK([AEEA-AEEA-γGlu-Trx-C20 diacid])Y-NH2) |  |  |  | 
